{"source": "paper PMC5481828", "about": "“Construction of a synthetic metabolic pathway for biosynthesis of the non-natural methionine precursor 2,4-dihydroxybutyric acid” (Nature Communications, 2017)", "key": {"[1]": {"molecular_target": "Ec-LysC (Escherichia coli, UniProt P08660)", "sequence (P08660 whole entry)": "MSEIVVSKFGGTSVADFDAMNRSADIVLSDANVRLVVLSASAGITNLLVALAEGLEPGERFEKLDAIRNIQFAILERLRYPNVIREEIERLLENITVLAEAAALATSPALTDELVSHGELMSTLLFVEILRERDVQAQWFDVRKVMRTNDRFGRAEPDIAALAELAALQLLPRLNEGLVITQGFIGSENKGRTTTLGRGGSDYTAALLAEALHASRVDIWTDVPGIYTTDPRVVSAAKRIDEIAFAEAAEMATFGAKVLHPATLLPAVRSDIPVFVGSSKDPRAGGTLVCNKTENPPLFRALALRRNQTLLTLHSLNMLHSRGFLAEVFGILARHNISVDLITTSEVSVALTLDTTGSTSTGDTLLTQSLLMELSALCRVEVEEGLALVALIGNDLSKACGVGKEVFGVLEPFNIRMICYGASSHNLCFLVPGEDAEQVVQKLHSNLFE", "conditions": "2 mM ATP, 5 mM MgCl2, 50 mM KCl, Hepes pH 7.5, 37 °C"}, "[2]": {"molecular_target": "T1, Ms-Ssr (Metallosphaera sedula, UniProt A4YGN0)", "T1 construct": "gene Msed_1424", "T1 sequence (A4YGN0 1-360)": "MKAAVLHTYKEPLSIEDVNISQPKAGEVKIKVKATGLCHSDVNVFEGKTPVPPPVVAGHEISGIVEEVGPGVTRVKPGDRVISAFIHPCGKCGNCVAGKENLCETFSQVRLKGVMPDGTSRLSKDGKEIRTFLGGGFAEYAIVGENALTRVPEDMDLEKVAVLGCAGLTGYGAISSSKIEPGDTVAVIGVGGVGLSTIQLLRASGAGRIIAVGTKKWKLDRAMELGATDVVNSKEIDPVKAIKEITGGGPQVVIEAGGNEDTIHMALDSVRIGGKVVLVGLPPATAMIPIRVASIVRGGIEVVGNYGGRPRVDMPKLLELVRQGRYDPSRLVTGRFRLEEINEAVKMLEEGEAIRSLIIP", "test": "NAD(P)H oxidation at […] nm", "format": "biochemical", "conditions": "NADPH 0.2 mM, Hepes pH 7.5, 50 mM KCl, 5 mM MgCl2, 37 °C; read-out: affinity"}, "[3]": {"molecular_target": "Bs-Asd (Bacillus subtilis, UniProt Q04797, E218Q)", "sequence (Q04797 whole entry E218Q)": "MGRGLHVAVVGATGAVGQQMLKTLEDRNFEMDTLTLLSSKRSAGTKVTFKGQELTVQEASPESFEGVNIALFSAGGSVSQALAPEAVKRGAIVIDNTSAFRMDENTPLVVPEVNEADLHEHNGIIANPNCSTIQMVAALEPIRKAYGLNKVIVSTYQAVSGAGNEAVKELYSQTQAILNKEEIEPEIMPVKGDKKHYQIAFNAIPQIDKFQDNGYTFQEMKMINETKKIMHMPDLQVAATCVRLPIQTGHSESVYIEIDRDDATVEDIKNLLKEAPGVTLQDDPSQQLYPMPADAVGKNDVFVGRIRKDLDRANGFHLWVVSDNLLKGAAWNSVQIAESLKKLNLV", "test": "NADPH oxidation, substrate made in situ by malate kinase", "format": "biochemical", "conditions": "biosynthetic direction, 0.2 mM NADPH, 2 mM ATP, 20 mM malate, Hepes pH 7, 37 °C"}, "[4]": {"molecular_target": "T2, Mj-Asd (Methanocaldococcus jannaschii, UniProt Q57658)", "T2 sequence (Q57658 1-354)": "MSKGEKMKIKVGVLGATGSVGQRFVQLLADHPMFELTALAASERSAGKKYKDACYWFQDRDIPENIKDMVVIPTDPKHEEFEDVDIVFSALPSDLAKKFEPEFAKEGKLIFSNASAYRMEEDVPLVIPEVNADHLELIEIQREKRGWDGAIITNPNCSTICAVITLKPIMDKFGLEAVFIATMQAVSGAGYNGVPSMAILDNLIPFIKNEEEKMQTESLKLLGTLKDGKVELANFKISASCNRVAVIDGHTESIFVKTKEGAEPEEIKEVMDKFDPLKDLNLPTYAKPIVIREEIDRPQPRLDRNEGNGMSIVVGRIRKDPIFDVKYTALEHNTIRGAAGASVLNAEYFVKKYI", "test": "NADPH oxidation, substrate made in situ by malate kinase", "format": "biochemical", "conditions": "biosynthetic direction, 0.2 mM NADPH, 2 mM ATP, 20 mM malate, Hepes pH 7, 37 °C"}}, "data": [{"compound": "N[C@@H](CC(=O)O)C(=O)O", "note": "[(L)-aspartate]", "values": [{"measurement": "Km", "setting": "[1]", "value": "Catalytic efficiency (kcat/Km) of wild-type aspartate kinase"}]}, {"compound": "O=CC[C@H](O)C(=O)O", "note": "[MSA, malate semialdehyde]", "values": [{"measurement": "Km", "setting": "[2]", "value": 1100, "unit": "µM"}]}, {"compound": "O=C(C[C@H](O)C(=O)O)OP(=O)(O)O", "note": "[malyl-P, malyl-4-phosphate]", "values": [{"measurement": "NADPH oxidation, substrate made in situ by malate kinase", "setting": "[3]", "value": "Bs-Asd E218Q mutant enzyme, which displayed an almost eightfold increased activity on malyl-P"}, {"measurement": "NADPH oxidation, substrate made in situ by malate kinase", "setting": "[4]", "value": "Enzymatic activities of wild-type Bs-Asd and Mj-Asd on malyl-P were approximately threefold lower"}]}]}
